US20200339625A1, “NOVEL RADIOMETAL-BINDING COMPOUNDS FOR DIAGNOSIS OR TREATMENT OF PROSTATE SPECIFIC MEMBRANE ANTIGEN-EXPRESSING CANCER” (PROVINCIAL HEALTH SERVICES AUTHORITY, priority 2017, published 2020)

Key:
[1] = test system: metastatic prostate cancer; conditions: advanced metastatic prostate cancer patients; cited from earlier work
[2] = test system: mice bearing PSMA-expressing LNCAP cancer xenografts; assay: Biodistribution of 68Ga-labeled compounds; assay type: in vivo
How it was run: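 NOD-SCID IL2RγKO male mice carried subcutaneous LNCaP xenografts grown to 5-8 mm over 5-6 weeks. Organs and blood were collected at 1 or 3 h after injection of the radiotracer and gamma-counted. Uptake was normalized to injected dose via a standard curve and expressed as %ID/g.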

[3] = test system: mice bearing LNCaP tumor xenografts; assay: PET/CT imaging of 68Ga-labeled compounds; assay type: in vivo; conditions: for blood retention (qualitative): PET/CT images at 1 h and 3 h post-injection, comparison within the figure
How it was run: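 Male NOD SCID IL2Rγ KO mice bore subcutaneous LNCaP xenografts (1×10^7 cells, tumours 5-8 mm) and received 6-8 MBq tracer via tail vein under 2% isoflurane. At 50 min p.i., a 10-min CT and a 10-min static PET were acquired. For the 3 h time point, scanning began at 170 min p.i. with a 15-min static PET.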

For O=C([O-])CC[C@H](NC(=O)N[C@@H](CCCCNC(=O)[C@H](Cc1ccc2ccccc2c1)NC(=O)[C@H]1CC[C@H](CNC(=O)CN2CCN(CC(=O)[O-])CCN(CC(=O)[O-])CCN(CC(=O)[O-])CC2)CC1)C(=O)[O-])C(=O)[O-].[225Ac].[H+].[H+].[H+] [^225Ac-PSMA-617], the response [1] is given as “impressive responses”.

Cc1ccc(CCCC(=O)NCC(=O)N[C@@H](CCCCNC(=O)CN2CCN(CC(=O)[O-])CCN(CC(=O)[O-])CCN(CC(=O)[O-])CC2)C(=O)NC[C@H]2CC[C@H](C(=O)N[C@@H](Cc3ccc4ccccc4c3)C(=O)NCCCC[C@H](NC(=O)N[C@@H](CCC(=O)O)C(=O)O)C(=O)O)CC2)cc1.[68Ga+3] [^68Ga-HTK03090] gave an Adrenal glands uptake ([2]; 1 h post-injection) of 3.99 ± 1.94 % ID/g, a Blood uptake ([2]; 1 h post-injection) of 16.8 ± 2.14 % ID/g and a Bone uptake ([2]; 1 h post-injection) of 0.71 ± 0.10 % ID/g. The Brain uptake ([2]; 1 h post-injection) was 0.20 ± 0.02 % ID/g, the Fat uptake ([2]; 1 h post-injection) was 1.87 ± 0.80 % ID/g and the Heart uptake ([2]; 1 h post-injection) was 3.95 ± 0.72 % ID/g. The Intestine uptake ([2]; 1 h post-injection) was 1.14 ± 0.13 % ID/g, the Kidneys uptake ([2]; 1 h post-injection) was 24.3 ± 3.03 % ID/g and the Lacrimal uptake ([2]; 1 h post-injection) was 0.16 ± 0.07 % ID/g. It also gave a Liver uptake ([2]; 1 h post-injection) of 3.37 ± 0.85 % ID/g, a Lungs uptake ([2]; 1 h post-injection) of 7.68 ± 1.33 % ID/g and a Muscle uptake ([2]; 1 h post-injection) of 1.23 ± 0.15 % ID/g. It also gave a Pancreas uptake ([2]; 1 h post-injection) of 1.36 ± 0.22 % ID/g, a Salivary uptake ([2]; 1 h post-injection) of 2.48 ± 0.36 % ID/g and a Seminal uptake ([2]; 1 h post-injection) of 0.90 ± 0.15 % ID/g. The Spleen uptake ([2]; 1 h post-injection) was 2.00 ± 0.34 % ID/g, the Stomach uptake ([2]; 1 h post-injection) was 0.59 ± 0.13 % ID/g and the Tail uptake ([2]; 1 h post-injection) was 3.77 ± 0.91 % ID/g. It also gave a Testes uptake ([2]; 1 h post-injection) of 1.95 ± 0.20 % ID/g, a Thyroid uptake ([2]; 1 h post-injection) of 3.36 ± 0.24 % ID/g and a Tumor uptake ([2]; 1 h post-injection) of 8.54 ± 0.74 % ID/g. For the same molecule, the “Tumor:Blood ratio” value ([2]; 1 h post-injection) was 0.52 ± 0.10, the “Tumor:Muscle ratio” value ([2]; 1 h post-injection) was 7.09 ± 1.37 and the Urine uptake ([2]; 1 h post-injection) was 21.5 ± 9.93 % ID/g. For the same molecule, the Adrenal glands uptake ([2]; 3 h post-injection) was 2.89 ± 0.28 % ID/g, the Blood uptake ([2]; 3 h post-injection) was 13.6 ± 1.23 % ID/g and the Bone uptake ([2]; 3 h post-injection) was 0.64 ± 0.03 % ID/g. It also gave a Brain uptake ([2]; 3 h post-injection) of 0.16 ± 0.02 % ID/g, a Fat uptake ([2]; 3 h post-injection) of 1.30 ± 0.13 % ID/g and a Heart uptake ([2]; 3 h post-injection) of 3.00 ± 0.41 % ID/g. For the same molecule, the Intestine uptake ([2]; 3 h post-injection) was 0.98 ± 0.16 % ID/g, the Kidneys uptake ([2]; 3 h post-injection) was 30.0 ± 8.66 % ID/g and the Lacrimal uptake ([2]; 3 h post-injection) was 0.10 ± 0.13 % ID/g. The Liver uptake ([2]; 3 h post-injection) was 2.73 ± 0.90 % ID/g, the Lungs uptake ([2]; 3 h post-injection) was 6.00 ± 0.88 % ID/g and the Muscle uptake ([2]; 3 h post-injection) was 1.04 ± 0.12 % ID/g. It also gave a Pancreas uptake ([2]; 3 h post-injection) of 1.27 ± 0.13 % ID/g, a Salivary uptake ([2]; 3 h post-injection) of 2.15 ± 0.37 % ID/g and a Seminal uptake ([2]; 3 h post-injection) of 0.89 ± 0.05 % ID/g. For the same molecule, the Spleen uptake ([2]; 3 h post-injection) was 1.93 ± 0.55 % ID/g, the Stomach uptake ([2]; 3 h post-injection) was 0.63 ± 0.12 % ID/g and the Tail uptake ([2]; 3 h post-injection) was 3.75 ± 1.53 % ID/g. For the same molecule, the Testes uptake ([2]; 3 h post-injection) was 2.08 ± 0.42 % ID/g, the Thyroid uptake ([2]; 3 h post-injection) was 2.76 ± 0.21 % ID/g and the Tumor uptake ([2]; 3 h post-injection) was 16.9 ± 3.16 % ID/g. For the same molecule, the “Tumor:Blood ratio” value ([2]; 3 h post-injection) was 1.25 ± 0.32, the “Tumor:Muscle ratio” value ([2]; 3 h post-injection) was 16.6 ± 4.11 and the Urine uptake ([2]; 3 h post-injection) was 53.9 ± 14.6 % ID/g. The “change of tumor uptake from 1 h to 3 h post-injection” value ([3]; PET/CT images) was “increases over time” and the “blood retention (qualitative)” value [3] was “significantly higher blood retention”.

In the case of O=C([O-])CN1CCN(CC(=O)[O-])CCN(CC(=O)NCCCC[C@H](NC(=O)CNC(=O)CCCc2ccc(Cl)cc2)C(=O)NC[C@H]2CC[C@H](C(=O)N[C@@H](Cc3ccc4ccccc4c3)C(=O)NCCCC[C@H](NC(=O)N[C@@H](CCC(=O)O)C(=O)O)C(=O)O)CC2)CCN(CC(=O)[O-])CC1.[68Ga+3] [^68Ga-HTK03055], the Adrenal glands uptake ([2]; 1 h post-injection) was 5.51 ± 1.56 % ID/g, the Blood uptake ([2]; 1 h post-injection) was 22.1 ± 2.04 % ID/g and the Bone uptake ([2]; 1 h post-injection) was 1.59 ± 0.44 % ID/g. The Brain uptake ([2]; 1 h post-injection) was 0.29 ± 0.04 % ID/g, the Fat uptake ([2]; 1 h post-injection) was 2.20 ± 0.41 % ID/g and the Heart uptake ([2]; 1 h post-injection) was 5.20 ± 0.59 % ID/g. The Intestine uptake ([2]; 1 h post-injection) was 1.52 ± 0.21 % ID/g, the Kidneys uptake ([2]; 1 h post-injection) was 31.1 ± 4.40 % ID/g and the Lacrimal uptake ([2]; 1 h post-injection) was 1.82 ± 1.46 % ID/g. The Liver uptake ([2]; 1 h post-injection) was 3.35 ± 1.08 % ID/g, the Lungs uptake ([2]; 1 h post-injection) was 8.37 ± 1.10 % ID/g and the Muscle uptake ([2]; 1 h post-injection) was 1.60 ± 0.19 % ID/g. The Pancreas uptake ([2]; 1 h post-injection) was 2.02 ± 0.32 % ID/g, the Salivary uptake ([2]; 1 h post-injection) was 3.87 ± 0.70 % ID/g and the Seminal uptake ([2]; 1 h post-injection) was 1.19 ± 0.18 % ID/g. The Spleen uptake ([2]; 1 h post-injection) was 3.05 ± 0.63 % ID/g, the Stomach uptake ([2]; 1 h post-injection) was 0.62 ± 0.09 % ID/g and the Tail uptake ([2]; 1 h post-injection) was 4.42 ± 0.76 % ID/g. For the same molecule, the Testes uptake ([2]; 1 h post-injection) was 2.54 ± 0.34 % ID/g, the Thyroid uptake ([2]; 1 h post-injection) was 4.20 ± 0.53 % ID/g and the Tumor uptake ([2]; 1 h post-injection) was 17.2 ± 1.67 % ID/g. For the same molecule, the “Tumor:Blood ratio” value ([2]; 1 h post-injection) was 0.78 ± 0.04, the “Tumor:Muscle ratio” value ([2]; 1 h post-injection) was 10.8 ± 1.15 and the “Tumor:kidney ratio” value ([2]; 1 h post-injection) was 0.56 ± 0.06. For the same molecule, the Urine uptake ([2]; 1 h post-injection) was 14.6 ± 10.9 % ID/g, the Adrenal glands uptake ([2]; 3 h post-injection) was 6.45 ± 1.03 % ID/g and the Blood uptake ([2]; 3 h post-injection) was 17.4 ± 1.15 % ID/g. The Bone uptake ([2]; 3 h post-injection) was 2.11 ± 0.62 % ID/g, the Brain uptake ([2]; 3 h post-injection) was 0.28 ± 0.06 % ID/g and the Fat uptake ([2]; 3 h post-injection) was 2.12 ± 0.69 % ID/g. For the same molecule, the Heart uptake ([2]; 3 h post-injection) was 3.89 ± 0.40 % ID/g, the Intestine uptake ([2]; 3 h post-injection) was 1.29 ± 0.18 % ID/g and the Kidneys uptake ([2]; 3 h post-injection) was 35.6 ± 7.23 % ID/g. It also gave a Lacrimal uptake ([2]; 3 h post-injection) of 4.14 ± 3.82 % ID/g, a Liver uptake ([2]; 3 h post-injection) of 2.96 ± 0.56 % ID/g and a Lungs uptake ([2]; 3 h post-injection) of 7.50 ± 1.05 % ID/g. The Muscle uptake ([2]; 3 h post-injection) was 1.26 ± 0.18 % ID/g, the Pancreas uptake ([2]; 3 h post-injection) was 1.74 ± 0.30 % ID/g and the Salivary uptake ([2]; 3 h post-injection) was 3.57 ± 1.07 % ID/g. For the same molecule, the Seminal uptake ([2]; 3 h post-injection) was 1.07 ± 0.12 % ID/g, the Spleen uptake ([2]; 3 h post-injection) was 3.07 ± 0.78 % ID/g and the Stomach uptake ([2]; 3 h post-injection) was 0.59 ± 0.13 % ID/g. For the same molecule, the Tail uptake ([2]; 3 h post-injection) was 3.52 ± 0.65 % ID/g, the Testes uptake ([2]; 3 h post-injection) was 2.63 ± 0.49 % ID/g and the Thyroid uptake ([2]; 3 h post-injection) was 3.40 ± 0.56 % ID/g. The Tumor uptake ([2]; 3 h post-injection) was 30.1 ± 3.12 % ID/g, the “Tumor:Blood ratio” value ([2]; 3 h post-injection) was 1.75 ± 0.28 and the “Tumor:Muscle ratio” value ([2]; 3 h post-injection) was 24.5 ± 5.08. For the same molecule, the “Tumor:kidney ratio” value ([2]; 3 h post-injection) was 0.88 ± 0.22, the Urine uptake ([2]; 3 h post-injection) was 33.8 ± 22.3 % ID/g and the “change of tumor uptake from 1 h to 3 h post-injection” value ([3]; PET/CT images) was “uptake in tumors increases over time”. The “blood retention (qualitative)” value [3] was “some extent of blood retention”.

O=C([O-])CN1CCN(CC(=O)[O-])CCN(CC(=O)NCC2CCC(C(=O)NC(Cc3ccc4ccc5cccc6ccc3c4c56)C(=O)NCCCCC(NC(=O)NC(CCC(=O)O)C(=O)O)C(=O)O)CC2)CCN(CC(=O)[O-])CC1.[68Ga+3] (stereo not shown) [^68Ga-HTK03029] showed an Adrenal glands uptake ([2]; 1 h post-injection) of 4.91 ± 1.57 % ID/g, a Blood uptake ([2]; 1 h post-injection) of 3.93 ± 0.91 % ID/g and a Bone uptake ([2]; 1 h post-injection) of 0.92 ± 0.14 % ID/g. For the same molecule, the Brain uptake ([2]; 1 h post-injection) was 0.09 ± 0.02 % ID/g, the Fat uptake ([2]; 1 h post-injection) was 1.57 ± 0.42 % ID/g and the Heart uptake ([2]; 1 h post-injection) was 1.25 ± 0.27 % ID/g. The Intestine uptake ([2]; 1 h post-injection) was 0.77 ± 0.11 % ID/g, the Kidneys uptake ([2]; 1 h post-injection) was 198 ± 49.3 % ID/g and the Lacrimal uptake ([2]; 1 h post-injection) was 1.06 ± 0.49 % ID/g. It also gave a Liver uptake ([2]; 1 h post-injection) of 1.32 ± 0.63 % ID/g, a Lungs uptake ([2]; 1 h post-injection) of 3.59 ± 0.69 % ID/g and a Muscle uptake ([2]; 1 h post-injection) of 0.63 ± 0.10 % ID/g. It also gave a Pancreas uptake ([2]; 1 h post-injection) of 0.94 ± 0.18 % ID/g, a Salivary uptake ([2]; 1 h post-injection) of 3.27 ± 1.02 % ID/g and a Seminal uptake ([2]; 1 h post-injection) of 6.74 ± 10.7 % ID/g. For the same molecule, the Spleen uptake ([2]; 1 h post-injection) was 7.08 ± 5.08 % ID/g, the Stomach uptake ([2]; 1 h post-injection) was 0.31 ± 0.08 % ID/g and the Tail uptake ([2]; 1 h post-injection) was 2.18 ± 0.65 % ID/g. It also gave a Testes uptake ([2]; 1 h post-injection) of 1.02 ± 0.13 % ID/g, a Thyroid uptake ([2]; 1 h post-injection) of 1.57 ± 0.32 % ID/g and a Tumor uptake ([2]; 1 h post-injection) of 13.9 ± 6.58 % ID/g. The “Tumor:Blood ratio” value ([2]; 1 h post-injection) was 3.39 ± 1.01, the “Tumor:Muscle ratio” value ([2]; 1 h post-injection) was 21.3 ± 7.50 and the “Tumor:kidney ratio” value ([2]; 1 h post-injection) was 0.07 ± 0.02. The Urine uptake ([2]; 1 h post-injection) was 175 ± 178 % ID/g, the excretion pathway ([3]; PET/CT images) was “excreted mainly via the renal pathway” and the “tumor uptake (qualitative comparison)” value ([3]; PET/CT images, compounds of FIG. 13) was “comparable”.
